Measured values as given in ChEMBL document CHEMBL1157744, “Small molecule antagonist of leukocyte function associated antigen-1 (LFA-1): structure-activity relationships leading to the identification of 6-((5S,9R)-9-(4-cyanophenyl)-3-(3,5-dichlorophenyl)-1-methyl-2,4-dioxo-1,3,7-triazaspiro[4.4]nonan-7-yl)nicotinic acid (BMS-688521)” (J Med Chem, 2010).
The source made the active and inactive calls. The rule behind the calls is not given here.

Legend:
[1] = molecular target: Integrin alpha-M (Homo sapiens) (UniProt P11215); details: THP-1, 10 uM
[2] = molecular target: Integrin alpha-4/beta-1 (Homo sapiens) (UniProt P05556+P13612); details: Jurkat, 10 uM
[3] = molecular target: T1, Integrin alpha-2/beta-3 (Homo sapiens) (UniProt P05106+P17301); details: 30 uM
[4] = molecular target: T1, Integrin alpha-2/beta-3 (Homo sapiens); details: 30 uM; remark: listed apart in the source
Mus musculus [5] = species: Mus musculus; details: in vivo, po, 5 mg/kg
Rattus norvegicus = species: Rattus norvegicus; details: in vivo, po, 5 mg/kg
Canis familiaris = species: Canis familiaris; details: dog, in vivo, po, 5 mg/kg
Mus musculus [6] = species: Mus musculus; details: BALB/c, 1 mg/kg
Mus musculus [7] = species: Mus musculus; details: BALB/c, 3 to 10 mg/kg
in vivo [8] = details: mouse, po, 5 mg/kg
in vivo [9] = details: mouse, plasma, po, 5 mg/kg
in vivo [10] = details: mouse, iv, 1 mg/kg
in vivo [11] = details: mouse, iv, 1 mg/kg; remark: listed apart in the source
in vivo [12] = details: mouse, iv, 1 mg/kg; remark: listed apart in the source
in vivo [13] = details: mouse, iv, 1 mg/kg; remark: listed apart in the source
in vivo [14] = details: mouse, po, 5 mg/kg; remark: listed apart in the source
in vivo [15] = details: rat, po, 5 mg/kg
in vivo [16] = details: rat, plasma, po, 5 mg/kg
in vivo [17] = details: rat, iv, 1 mg/kg
in vivo [18] = details: rat, iv, 1 mg/kg; remark: listed apart in the source
in vivo [19] = details: rat, iv, 1 mg/kg; remark: listed apart in the source
in vivo [20] = details: rat, iv, 1 mg/kg; remark: listed apart in the source
in vivo [21] = details: rat, po, 5 mg/kg; remark: listed apart in the source
in vivo [22] = details: dog, po, 5 mg/kg
in vivo [23] = details: dog, plasma, po, 5 mg/kg
in vivo [24] = details: dog, iv, 1 mg/kg
in vivo [25] = details: dog, iv, 1 mg/kg; remark: listed apart in the source
in vivo [26] = details: dog, iv, 1 mg/kg; remark: listed apart in the source
in vivo [27] = details: dog, iv, 1 mg/kg; remark: listed apart in the source
in vivo [28] = details: dog, po, 5 mg/kg; remark: listed apart in the source
in vitro [29] = details: human, Caco-2
in vitro [30] = details: human, serum
hERG (KCNH2) = hERG (KCNH2) (Homo sapiens, UniProt Q12809); assay: in vitro
in vitro [31] = details: Purkinje fibers

Chain of hERG (KCNH2) (Q12809 whole entry): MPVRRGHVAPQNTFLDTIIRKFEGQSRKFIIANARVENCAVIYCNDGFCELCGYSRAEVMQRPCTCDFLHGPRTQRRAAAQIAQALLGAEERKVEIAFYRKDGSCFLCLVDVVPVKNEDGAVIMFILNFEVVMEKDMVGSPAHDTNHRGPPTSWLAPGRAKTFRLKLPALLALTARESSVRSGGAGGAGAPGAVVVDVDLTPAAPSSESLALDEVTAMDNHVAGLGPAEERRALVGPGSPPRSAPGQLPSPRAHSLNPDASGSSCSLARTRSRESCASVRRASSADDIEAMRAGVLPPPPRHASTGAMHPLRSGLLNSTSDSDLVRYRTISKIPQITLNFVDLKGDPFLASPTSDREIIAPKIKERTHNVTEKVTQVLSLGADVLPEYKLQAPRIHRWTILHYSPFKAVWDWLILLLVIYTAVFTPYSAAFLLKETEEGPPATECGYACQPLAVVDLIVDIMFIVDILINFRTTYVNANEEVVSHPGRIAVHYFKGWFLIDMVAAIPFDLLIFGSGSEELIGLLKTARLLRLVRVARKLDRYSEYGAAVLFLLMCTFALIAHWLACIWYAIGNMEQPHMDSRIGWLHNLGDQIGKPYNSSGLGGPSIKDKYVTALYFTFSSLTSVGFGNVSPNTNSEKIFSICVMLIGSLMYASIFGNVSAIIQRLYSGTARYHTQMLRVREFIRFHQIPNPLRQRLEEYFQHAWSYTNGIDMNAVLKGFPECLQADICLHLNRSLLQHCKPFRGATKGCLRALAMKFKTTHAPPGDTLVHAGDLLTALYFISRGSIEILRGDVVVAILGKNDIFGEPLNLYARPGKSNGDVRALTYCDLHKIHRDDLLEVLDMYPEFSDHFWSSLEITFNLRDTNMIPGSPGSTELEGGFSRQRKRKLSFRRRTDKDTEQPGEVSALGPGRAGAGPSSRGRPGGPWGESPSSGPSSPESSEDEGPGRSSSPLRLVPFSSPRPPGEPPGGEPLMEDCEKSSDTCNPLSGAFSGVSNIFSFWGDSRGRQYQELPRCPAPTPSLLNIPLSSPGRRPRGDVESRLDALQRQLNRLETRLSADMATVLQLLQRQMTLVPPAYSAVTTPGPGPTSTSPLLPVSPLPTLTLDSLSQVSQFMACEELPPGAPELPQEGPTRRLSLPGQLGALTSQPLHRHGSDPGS

SMILES: CN1C(=O)N(c2cc(Cl)cc(Cl)c2)C(=O)[C@]12CN(c1ccc(C(=O)O)cn1)C[C@H]2c1ccc(C#N)cc1
- inhibition [1]: 18%
- inhibition [2]: 0%
- inhibition [3]: 0%
- inhibition [4]: 0%
- Tmax (Mus musculus [5]): 1 h
- Tmax (Rattus norvegicus): 1.7 h
- Tmax (Canis familiaris): 2.9 h
- inhibition (Mus musculus [6]): Active
- inhibition (Mus musculus [7]): Dose-dependent effect
- Cmax (in vivo [8]): 320 nM
- AUC (in vivo [9]): 1.5 µM·h
- half-life (in vivo [10]): 1.6 h
- MRT (in vivo [11]): 1.7 h
- clearance (in vivo [12]): 50 mL/min/kg
- Vd (in vivo [13]): 5.1 L/kg
- bioavailability (in vivo [14]): 50%
- Cmax (in vivo [15]): 2300 nM
- AUC (in vivo [16]): 13 µM·h
- half-life (in vivo [17]): 3.3 h
- MRT (in vivo [18]): 3.5 h
- clearance (in vivo [19]): 11 mL/min/kg
- Vd (in vivo [20]): 2.3 L/kg
- bioavailability (in vivo [21]): 82%
- Cmax (in vivo [22]): 22000 nM
- AUC (in vivo [23]): 102 µM·h
- half-life (in vivo [24]): 4.7 h
- MRT (in vivo [25]): 6.9 h
- clearance (in vivo [26]): 0.5 mL/min/kg
- Vd (in vivo [27]): 0.2 L/kg
- bioavailability (in vivo [28]): 48%
- Papp A→B (in vitro [29]): 14.8 ×10⁻⁶ cm/s
- fraction unbound (in vitro [30]): 0.05
- inhibition at 30 µM (hERG (KCNH2)): 20%
- inhibition at 30 µM (in vitro [31]): < 5%
